Assay results: publication PMC8121805, “Discovery of first-in-class inhibitors of ASH1L histone methyltransferase with anti-leukemic activity” (Nature Communications, 2021)
Where “and” joins values, the source holds several entries; their conditions need not be identical. Identical values can stand only once.

What was measured:
MV4;11 cells [1] = assay: Annexin V apoptosis assay (flow cytometry); type: cell-based, human; settings: for MV4;11 % Annexin V(+) cells / MV4;11 % Annexin V/PI+ cells: 7 days; for apoptosis in the MLL leukemia cells (Annexin V positive cells): MV4;11 and KOPN8
[2] = tested on: MLL fusion target genes in MV4;11 cells; assay: Real time qRT-PCR gene expression; type: cell-based, human
Method: 0.5 × 10^6 – 3 × 10^6 cells from each sample were collected at days 7 or 8 of treatment, centrifuged at 211 xg, and RNA was extracted according to the RNeasy Mini Kit protocol (74106, Qiagen). Extracted RNA was quantified using Nanodrop 2000 UV-Vis spectrophotometer and 0.5–1 µg of total RNA was reverse transcribed into cDNA using High-Capacity cDNA Reverse Transcription Kit (4368814, Applied Biosystems™) according to the manufacturer’s protocol. Real-time PCR was performed using the CFX96 Touch Real-Time PCR Detection System (Bio-Rad). TaqMan Gene Expression Master Mix and TaqMan Gene Expression Assays were purchased from Applied Biosystems. Relative quantification of each gene transcript was carried out using the comparative Ct method as described in the Applied Biosystems User Bulletin no. 2. TaqMan Gene Expression Assays were used: HPRT1: Hs02800695_m1, DLX2: Hs00269993_m1, FLT3: Hs00174690_m1, HOXA9: Hs00365956_m1, MEF2C: Hs00231149_m1, MEIS1: Hs00180020_m1, MNDA: Hs00935905_m1.
Supplementary Figure 10. Effect of AS-nc on gene expression in MLL leukemia cells. (a, b) Quantitative RT-PCR performed in MOLM13 cells (a) or MV4;11 cells (b) after 7 days of treatment with AS-nc. Gene expression was normalized to HPRT1 and referenced to the DMSO treated cells. Representative data from two independent experiments, each performed in triplicates, […]

[3] = tested on: MLL leukemia cells (MV4;11, MOLM13, KOPN8, RS4;11); assay: MTT cell viability assay, MLL leukemia cells as a group; type: cell-based, human
Method: Human leukemia cells K562, MV4;11 and RS4;11 (purchased from ATCC) and KOPN8, MOLM13 (purchased from DSMZ) were cultured in RPMI 1640 (Invitrogen) supplemented with 10% heat inactivated (h.i.) FBS and 1% penicillin/streptomycin (Invitrogen). SET2 cells (purchased from DSMZ) were cultured in RPMI 1640 supplemented with 20% h.i. FBS and 1% penicillin/streptomycin. Cells were plated at 1 × 10^5 to 2 × 10^5 cells/mL depending on cell line and treated with 0.25% DMSO or varying concentrations of compounds and incubated at 37 °C, 5% CO2 incubator for 7 days. Media was changed on day 3 or 4 and compounds were resupplied. […] Cell suspensions (100 μL) were transferred to the 96-well plates for each sample in quadruplicate at the time of media change. At day 7, 10 µL of MTT reagent (M6494, Molecular Probes™) was added to each well of the 96 well plate and incubated at 37 °C for 4 h. The formazan was then solubilized by adding 100 µL acidified 10% SDS solution and incubated at 37 °C overnight. Plates were read for absorbance at 570 nm using a PHERAstar BMG microplate reader. The experiments were performed two times in quadruplicates with calculation of mean and SD for each condition. Data were analyzed in Prism 8.0.0 to obtain GI50 values.
Supplementary Figure 4. Cell viability assay for AS-6 in MLL leukemia cell lines. Titration curves from the MTT cell viability assay performed after 7 days of treatment of human MLL1- […]
replicates. Representative graphs are shown from two independent MTT experiments performed […]
(§1) Supplementary Figure 7. […] (a)
Titration curves from the MTT cell viability assay performed after 4, 7, and 11 (or 10) days of […]
Titration curves from the MTT cell viability assay performed after 7 days of treatment of KOPN8 , MOLM13 and MV4;11 cell lines harboring MLL1 translocation (MLL1-r) or K562 cell line (non- […]
Representative graphs are shown from two independent MTT experiments performed for each cell line. GI50 values correspond to […]

MV4;11 cells [4] = assay: MTT cell viability assay; type: cell-based, human; settings: MTT, 7 days
Method: (§2) FBS and 1% penicillin/streptomycin. […] Media was changed on day 3 or 4 and compounds were resupplied. […] Cell suspensions (100 μL) were transferred to the 96-well plates for each sample in quadruplicate at the time of media change. At day 7, 10 µL of MTT reagent (M6494, Molecular Probes™) was added to each well of the 96 well plate and incubated at 37 °C for 4 h. The formazan was then solubilized by adding 100 µL acidified 10% SDS solution and incubated at 37 °C overnight. Plates were read for absorbance at 570 nm using a PHERAstar BMG microplate reader. The experiments were performed two times in quadruplicates with calculation of mean and SD for each condition. Data were analyzed in Prism 8.0.0 to obtain GI50 values.
as §1
(§3) Titration curves from the MTT cell viability assay performed after 4, 7, and 11 (or 10) days of
(§4) Titration curves from the MTT cell viability assay performed after 7 days of treatment of KOPN8 ,
(§5) MOLM13 and MV4;11 cell lines harboring MLL1 translocation (MLL1-r) or K562 cell line (non-
(§6) Representative graphs are shown
(§7) from two independent MTT experiments performed for each cell line.

MOLM13 cells = assay: MTT cell viability assay; type: cell-based, human; settings: MTT, 7 days
Method: as §2, §1, §3, §4, §5, §6, §7

KOPN8 cells = assay: Annexin V apoptosis assay (flow cytometry); type: cell-based, human; settings: 7 days
SMYD1 = SMYD1 (Homo sapiens, UniProt Q8NB12); assay: HMT selectivity panel; settings: SMYD1, 50 µM compound
Sequence of SMYD1 (Q8NB12 whole entry, species assumed): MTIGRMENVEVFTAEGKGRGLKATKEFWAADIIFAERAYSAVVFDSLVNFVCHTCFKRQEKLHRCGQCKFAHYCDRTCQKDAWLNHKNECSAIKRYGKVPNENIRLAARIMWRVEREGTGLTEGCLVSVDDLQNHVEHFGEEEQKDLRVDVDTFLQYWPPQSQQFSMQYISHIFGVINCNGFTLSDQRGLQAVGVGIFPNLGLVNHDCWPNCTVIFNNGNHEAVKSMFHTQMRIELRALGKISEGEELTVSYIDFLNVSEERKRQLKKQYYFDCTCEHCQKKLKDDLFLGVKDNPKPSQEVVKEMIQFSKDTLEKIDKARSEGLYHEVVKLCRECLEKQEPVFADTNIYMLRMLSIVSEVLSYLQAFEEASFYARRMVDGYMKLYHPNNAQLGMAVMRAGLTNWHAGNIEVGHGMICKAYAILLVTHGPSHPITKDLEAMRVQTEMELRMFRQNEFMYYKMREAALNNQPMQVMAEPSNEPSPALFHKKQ
Excerpt: Assay conditions for selectivity experiments with a panel of histone
(§8) mM DTT and 0.01% Triton X-100 was used in experiments containing core histone.

NSD2 = NSD2 (Homo sapiens, UniProt O96028); assay: HMT selectivity panel; settings: NSD2, 50 µM compound
Sequence of NSD2 (O96028 whole entry, species assumed): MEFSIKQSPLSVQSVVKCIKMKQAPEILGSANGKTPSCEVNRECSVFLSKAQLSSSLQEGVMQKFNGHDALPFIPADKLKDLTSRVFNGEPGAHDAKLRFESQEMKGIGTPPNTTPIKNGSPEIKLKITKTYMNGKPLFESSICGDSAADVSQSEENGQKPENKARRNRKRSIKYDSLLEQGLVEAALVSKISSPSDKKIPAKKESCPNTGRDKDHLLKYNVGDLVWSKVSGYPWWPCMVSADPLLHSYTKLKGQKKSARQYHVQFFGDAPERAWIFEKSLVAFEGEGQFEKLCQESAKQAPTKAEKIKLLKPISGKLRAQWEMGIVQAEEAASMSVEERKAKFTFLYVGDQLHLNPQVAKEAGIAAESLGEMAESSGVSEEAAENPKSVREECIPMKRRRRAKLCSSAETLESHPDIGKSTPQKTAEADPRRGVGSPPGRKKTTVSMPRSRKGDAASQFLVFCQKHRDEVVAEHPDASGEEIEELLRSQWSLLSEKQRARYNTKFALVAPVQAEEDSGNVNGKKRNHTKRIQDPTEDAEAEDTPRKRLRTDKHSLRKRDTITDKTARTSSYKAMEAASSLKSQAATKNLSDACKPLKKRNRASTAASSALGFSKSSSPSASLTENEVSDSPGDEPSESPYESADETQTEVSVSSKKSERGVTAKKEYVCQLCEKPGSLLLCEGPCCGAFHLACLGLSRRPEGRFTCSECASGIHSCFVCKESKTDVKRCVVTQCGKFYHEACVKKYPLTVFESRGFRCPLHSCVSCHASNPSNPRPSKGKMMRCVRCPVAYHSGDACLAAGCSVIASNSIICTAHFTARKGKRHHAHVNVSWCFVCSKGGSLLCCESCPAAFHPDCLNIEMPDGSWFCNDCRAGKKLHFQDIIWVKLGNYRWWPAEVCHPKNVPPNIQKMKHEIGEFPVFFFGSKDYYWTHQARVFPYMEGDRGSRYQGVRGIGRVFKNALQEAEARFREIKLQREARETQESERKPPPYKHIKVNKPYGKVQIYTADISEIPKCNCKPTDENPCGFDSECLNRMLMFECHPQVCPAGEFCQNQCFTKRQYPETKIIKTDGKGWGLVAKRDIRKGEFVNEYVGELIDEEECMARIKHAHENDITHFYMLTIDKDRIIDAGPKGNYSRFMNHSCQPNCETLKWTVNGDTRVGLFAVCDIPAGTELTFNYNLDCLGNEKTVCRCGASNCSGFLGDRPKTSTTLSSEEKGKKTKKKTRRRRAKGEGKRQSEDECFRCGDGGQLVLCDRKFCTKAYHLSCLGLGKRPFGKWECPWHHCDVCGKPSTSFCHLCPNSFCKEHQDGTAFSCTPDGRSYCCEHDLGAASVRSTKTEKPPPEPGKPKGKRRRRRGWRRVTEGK
Excerpt: as §8

[5] = MV4;11, 7 days, 3 uM, normalized to HPRT1, referenced to DMSO

With CN1CC(C(=O)NCc2ccc3c(-c4cccc(C(N)=O)c4)cn(C4CCN(S(=O)(=O)C(F)(F)F)CC4)c3c2)C1 [AS-nc] the “MV4;11 % Annexin V(+) cells” value (MV4;11 cells [1]; 2 uM) was 3.62% and 6.04% and 7.38%, the “MV4;11 % Annexin V(+) cells” value (MV4;11 cells [1]; 4 uM) was 2.35% and 3.67% and 4.83% and the “MV4;11 % Annexin V(+) cells” value (MV4;11 cells [1]; 6 uM) was 3% and 3.59% and 6.28%. For the same compound, the “apoptosis in the MLL leukemia cells (Annexin V positive cells)” value (MV4;11 cells [1]) was “not observed”, the “MV4;11 fold change vs DMSO, FLT3” value ([2]; AS-nc 3 uM) was 1.06 and 0.99 and 0.95 and the “MV4;11 fold change vs DMSO, HOXA9” value ([2]; AS-nc 3 uM) was 1.01 and 0.9. The “MV4;11 fold change vs DMSO, MEF2C” value ([2]; AS-nc 3 uM) was 1.19 and 1.02 and 0.92, the “MV4;11 fold change vs DMSO, MESIS1” value ([2]; AS-nc 3 uM) was 0.86 and 1.07 and 0.96 and the “effect on MLL leukemia cells (viability)” value ([3]; 7 days) was “no or much weaker effects”. For the same compound, the “% activity MV4;11” value (MV4;11 cells [4]; log[compound] -4.92082) was 33.9271% and 38.4523% and 37.682% and 37.2006%, the “% activity MV4;11” value (MV4;11 cells [4]; log[compound] -5.22185) was 75.4242% and 68.4439% and 74.2207% and 76.0501% and the “% activity MV4;11” value (MV4;11 cells [4]; log[compound] -5.52288) was 93.14% and 102.624% and 98.3873% and 102.19%. The “% activity MV4;11” value (MV4;11 cells [4]; log[compound] -5.82391) was 95.1619% and 88.5666% and 92.2253% and 96.7986%, the “% activity MV4;11” value (MV4;11 cells [4]; log[compound] -6.12494) was 101.179% and 95.4026% and 92.466% and 99.4464% and the “% activity MV4;11” value (MV4;11 cells [4]; log[compound] -6.42597) was 105.753% and 96.7024% and 99.7834% and 97.7615%. For the same compound, the “% activity MOLM-13” value (MOLM13 cells; log[compound] -4.92082) was 79.465% and 80.5109% and 111.082% and 96.078%, the “% activity MOLM-13” value (MOLM13 cells; log[compound] -5.22185) was 91.4119% and 88.8777% and 88.5559% and 94.107% and the “% activity MOLM-13” value (MOLM13 cells; log[compound] -5.52288) was 100.261% and 95.3942% and 100.744% and 98.5318%. For the same compound, the “% activity MOLM-13” value (MOLM13 cells; log[compound] -5.82391) was 98.572% and 96.1183% and 100.945% and 90.7281%, the “% activity MOLM-13” value (MOLM13 cells; log[compound] -6.12494) was 105.41% and 99.4972% and 101.227% and 102.474% and the “% activity MOLM-13” value (MOLM13 cells; log[compound] -6.42597) was 103.801% and 99.1352% and 97.8479% and 99.2156%. For the same compound, the “KOPN8 % Annexin V(+) cells” value (KOPN8 cells; 2 uM) was 6.32% and 5.25% and 5.31%, the “KOPN8 % Annexin V(+) cells” value (KOPN8 cells; 4 uM) was 7.36% and 6.41% and 6.28% and the “KOPN8 % Annexin V(+) cells” value (KOPN8 cells; 6 uM) was 7.96% and 6.03% and 6.25%.
For CN1CC(C(=O)NCc2ccc3c(-c4cccc(C(N)=S)c4)cn(C4CCN(S(=O)(=O)C(F)(F)F)CC4)c3c2)C1 [AS-99], the “MV4;11 % Annexin V/PI+ cells” value (MV4;11 cells [1]; 3 uM) was 5.84% and 5.81% and 5.56%, the “MV4;11 % Annexin V/PI+ cells” value (MV4;11 cells [1]; 4.5 uM) was 21.9% and 12.8% and the “apoptosis in the MLL leukemia cells (Annexin V positive cells)” value (MV4;11 cells [1]) was “induced apoptosis”. For the same compound, the DLX2 expression [2, 5] was 0.19 and 0.27 and 0.29, the FLT3 expression [2, 5] was 0.7 and 0.8 and 0.73 and the HOXA9 expression [2, 5] was 0.46 and 0.64 and 0.75. The MEF2C expression [2, 5] was 0.64 and 0.74 and 0.63, the MEIS1 expression [2, 5] was 0.76 and 0.82 and 1.02 and the MNDA expression [2, 5] was 1.48 and 1.84 and 1.74. For the same compound, the GI50 ([3]; Homo sapiens, MLL leukemia cells) was 1.8 to 3.6 µM, the GI50 (MV4;11 cells [4]; Homo sapiens, 168 h, MV4;11 (MLL1-r)) was 1.8 ± 0.2 µM and the “% activity MV4;11” value (MV4;11 cells [4]; log[compound] -4.92082) was 1.588% and 2.029%. For the same compound, the “% activity MV4;11” value (MV4;11 cells [4]; log[compound] -5.22185) was 0.6174% and 0.7056% and 0.9702%, the “% activity MV4;11” value (MV4;11 cells [4]; log[compound] -5.52288) was 22.9327% and 24.6086% and 18.5226% and 19.2282% and the “% activity MV4;11” value (MV4;11 cells [4]; log[compound] -5.82391) was 65.4465% and 63.065% and 69.151% and 68.269%. The “% activity MV4;11” value (MV4;11 cells [4]; log[compound] -6.12494) was 88.9085% and 99.8456% and 101.963% and 98.4344%, the “% activity MV4;11” value (MV4;11 cells [4]; log[compound] -6.42597) was 97.7288% and 98.9636% and 100.639% and 102.668% and the GI50 (MOLM13 cells; Homo sapiens, MOLM-13, 168 h, MOLM13 (MLL1-r)) was 3.6 ± 0.3 µM. The “% activity MOLM-13” value (MOLM13 cells; log[compound] -4.92082) was 3.13% and 3.054% and 2.978%, the “% activity MOLM-13” value (MOLM13 cells; log[compound] -5.22185) was 1.145% and 1.069% and 1.222% and the “% activity MOLM-13” value (MOLM13 cells; log[compound] -5.52288) was 67.0357% and 69.5553% and 72.2275% and 71.6931%. For the same compound, the “% activity MOLM-13” value (MOLM13 cells; log[compound] -5.82391) was 99.1792% and 96.2016% and 97.7286% and 103.76%, the “% activity MOLM-13” value (MOLM13 cells; log[compound] -6.12494) was 111.472% and 117.274% and 111.243% and 116.205% and the “% activity MOLM-13” value (MOLM13 cells; log[compound] -6.42597) was 98.5684% and 93.0712% and 98.6448% and 96.736%. The activity at 50 µM (SMYD1) was 81.1%, the “% activity” value (SMYD1; 50 µM) was 68.7304% and the “KOPN8 % Annexin V/PI+ cells” value (KOPN8 cells; 1 uM) was 4.46% and 5.06% and 4.65%. For the same compound, the “KOPN8 % Annexin V/PI+ cells” value (KOPN8 cells; 2 uM) was 6.92% and 8.33% and 6.49%, the “KOPN8 % Annexin V/PI+ cells” value (KOPN8 cells; 3 uM) was 6.23% and 7.5% and 8.51% and the “KOPN8 % Annexin V/PI+ cells” value (KOPN8 cells; 4 uM) was 31.1% and 33%. For the same compound, the activity at 50 µM (NSD2) was 92.1% and the “% activity” value (NSD2; 50 µM) was 101.756%.
